As a reminder, the IC50 is the concentration that gives 50% inhibition. A high value points to weaker potency in that assay.

The record followed here is article PMC12442245, “Activity Analysis of the P2X Receptor Antagonist PPADS against Signal Transducer and Activator of Transcription Proteins” (Chembiochem, 2025).

The target of one experiment is T1, STAT5b (Homo sapiens, UniProt P51692).
T1 sequence (P51692 1-787): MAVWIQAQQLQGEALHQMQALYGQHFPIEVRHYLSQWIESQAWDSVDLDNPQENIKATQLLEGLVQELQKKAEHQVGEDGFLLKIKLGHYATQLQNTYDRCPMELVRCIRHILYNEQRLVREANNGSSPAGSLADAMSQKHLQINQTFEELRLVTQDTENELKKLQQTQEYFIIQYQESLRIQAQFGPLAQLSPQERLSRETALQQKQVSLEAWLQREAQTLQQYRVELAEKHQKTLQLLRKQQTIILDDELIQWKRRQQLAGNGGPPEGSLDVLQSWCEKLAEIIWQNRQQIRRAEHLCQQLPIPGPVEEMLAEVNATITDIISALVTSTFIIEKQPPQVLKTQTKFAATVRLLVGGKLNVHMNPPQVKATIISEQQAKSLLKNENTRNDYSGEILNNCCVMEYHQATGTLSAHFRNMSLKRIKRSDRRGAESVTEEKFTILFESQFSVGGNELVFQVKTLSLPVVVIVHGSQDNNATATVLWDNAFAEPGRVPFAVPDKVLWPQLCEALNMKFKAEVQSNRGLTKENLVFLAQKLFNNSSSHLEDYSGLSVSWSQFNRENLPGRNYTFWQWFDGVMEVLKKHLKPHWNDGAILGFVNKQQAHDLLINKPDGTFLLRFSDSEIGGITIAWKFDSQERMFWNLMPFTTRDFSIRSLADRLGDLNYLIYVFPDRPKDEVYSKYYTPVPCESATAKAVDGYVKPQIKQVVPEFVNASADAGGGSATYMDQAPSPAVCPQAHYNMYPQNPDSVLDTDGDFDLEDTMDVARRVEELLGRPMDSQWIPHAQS
Description: Competitive fluorescence polarization (FP) assay, STAT5b. Format: binding. Conditions: no reducing agent, 1 h. The text has this: Screening of chemical libraries
Screening of chemical libraries comprising approximately 5000 known bioactive compounds in fluorescence polarization-based assays against phosphorylation-dependent protein-protein interaction domains, including STAT proteins, has been described.[1] PPADS was purchased from Sigma-Aldrich, and iso-PPADS from Bio-Techne.
Fluorescence polarization assays
Competitive fluorescence polarization (FP) assays for STAT1,[2] STAT3,[3] STAT4,[4] STAT5a,[5] STAT5b[6] and STAT6[1] were performed as previously described. Briefly, peptide binding to proteins was analyzed using the following carboxyfluorescein (CF) -labelled pepti des at a concentration of 10 nM: STAT1: 5-CF-GpYDKPHVL-OH, STAT3: 5-CF-GpYLPQTV -NH2, STAT4: 5-CF-GpYLPQNID-OH, STAT5a and STAT5b: 5-CF-GpYLVLDKW-OH, STAT6: 5- […]
CFGp[…]-OH. Proteins were used at a final concentration representing the approximate Kd value for binding of the corresponding peptide to the protein, namely 65 nM for STAT1, 65 nM for STAT3, 35 nM for STAT4, 125 nM for STAT5a, 65 nM for STAT5b and 75 nM for STAT6. […] FP was measured using an Infinite F500 plate reader (Tecan) and measurements were converted into percent inhibition according to the binding curve equation. Curves were plotted and best fits calculated using OriginPro […]

The next experiment addresses STAT3 (Homo sapiens, UniProt P40763). Description: HTRF assay, STAT3. Set-up: the endogenous full‐length proteins (between 748 and 793 amino acids for STAT3/4/5a/5b); endogenous in cells; host or cells: NK-92 cells (DSMZ), whole-cell lysate. Conditions: STAT3 110 nM, without reducing agent, 1 h. Format: binding.

STAT3, sequence (P40763 whole entry, species assumed): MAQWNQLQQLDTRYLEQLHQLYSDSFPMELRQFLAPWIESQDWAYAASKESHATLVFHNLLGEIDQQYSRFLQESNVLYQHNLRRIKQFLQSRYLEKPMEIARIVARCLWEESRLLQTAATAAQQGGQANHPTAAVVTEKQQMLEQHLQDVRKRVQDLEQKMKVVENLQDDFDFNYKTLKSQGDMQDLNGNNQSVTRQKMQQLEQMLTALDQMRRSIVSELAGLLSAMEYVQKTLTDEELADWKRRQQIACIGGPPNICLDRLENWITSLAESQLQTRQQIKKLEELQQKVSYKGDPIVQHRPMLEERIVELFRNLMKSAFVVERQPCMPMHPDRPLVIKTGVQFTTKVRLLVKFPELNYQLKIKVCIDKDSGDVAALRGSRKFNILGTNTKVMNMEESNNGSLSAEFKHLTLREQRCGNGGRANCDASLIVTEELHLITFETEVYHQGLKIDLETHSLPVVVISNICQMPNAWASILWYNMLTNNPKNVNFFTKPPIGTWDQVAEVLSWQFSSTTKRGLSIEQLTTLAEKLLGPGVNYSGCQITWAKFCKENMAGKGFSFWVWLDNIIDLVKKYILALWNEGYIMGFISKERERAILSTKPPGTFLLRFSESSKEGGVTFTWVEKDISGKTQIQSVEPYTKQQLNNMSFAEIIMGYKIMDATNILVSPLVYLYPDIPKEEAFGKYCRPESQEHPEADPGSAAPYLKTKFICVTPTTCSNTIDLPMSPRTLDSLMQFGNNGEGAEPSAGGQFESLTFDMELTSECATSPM
Description for STAT3: In addition, an HTRF assay was established for STAT3, one of the STAT proteins targeted to a lesser extent in FP assays, as a specificity control (Figure 1B,C). […] A Tb^3+‐cryptate fused to an anti‐6x‐His antibody was chosen as the long‐lived fluorescent donor, while the carboxyfluorescein linked to the respective STAT‐binding peptides served as the acceptor (Figure 2A). Emission was measured with a time delay of 60 μs after excitation, allowing any initial compound fluorescence to decay beforehand.
Homogenous time-resolved fluorescence (HTRF) assays for STAT3, STAT4, STAT5a and STAT5b were carried out using Cisbio Monoclonal Antibody Anti-6His-Tb Gold as the fluorescence donor (Perkin Elmer) and the corresponding CF-labelled binding peptide as the acceptor. Protein at 110 nM (STAT3), 30 nM (STAT4), 110 nM (STAT 5a) or 80 nM (STAT5b) was combined with terbium-labelled antibody at the recommended concentration, 150 nM CF-labelled peptide and compound as indicated, and incubated at room temperature for 1 h. […] Fluorescence /luminescence was measured in Proxiplate 384-well plates (Perkin Elmer), using a 340 nm excitation filter with 520 nm and 620 nm emission filters, with 60 µs time delay. The average reading from 3 wells was obtained. After subtraction of the blank (buffer only) from each reading, the ratio of the 520 nm / 620 nm readings was calculated. […]

As for `Cc1nc(/N=N/c2ccc(S(=O)(=O)O)cc2S(=O)(=O)O)c(COP(=O)(O)O)c(C=O)c1O` [PPADS, pyridoxalphosphate‐6‐azophenyl‐2',4'‐disulfonic acid], the IC50 on STAT5b was 2 ± 0.3 µM; against STAT3, 29.6 ± 4 µM.

As to `Cc1nc(/N=N/c2cc(S(=O)(=O)O)ccc2S(=O)(=O)O)c(COP(=O)(O)O)c(C=O)c1O` [iso‐PPADS], the IC50 worked out at 1.9 ± 0.1 µM at STAT5b and 31.9 ± 4 µM at STAT3.
